From patent US6949682B2, “Cinnamaldehyde derivatives inhibiting growth of tumor cell and regulating cell cycle, preparations and pharmaceutical compositions thereof” (Korea Research Institute of Bioscience and Biotechnology, priority 2003, dated 2005)

Key:
HCT116 colon cancer cell [1] = experiment: Growth inhibition of HCT116 colon cancer cell (GI50); format: cell-based, human; settings: concentration at which growth of HCT116 colon cancer cell was inhibited to the 50%
Method: (§1) Colon cancer cell of human SW620(ATCC) or HCT116 (ATCC) was transferred to T25 flask(culture 7.5 ml) by RPMI1640 (Gibco/BR) medium or DMEM medium (Gibco/BR) containing 10% FBS (fetal bovine serum), respectively. Thereafter the cell was incubated for 12 hours at 37° C. in incubator. After the cell was incubated for 12 hours, 7.5 μl of DMSO was added to a culture used as control group, for the final concentration to be 0.1%. In order to use in experiment, samples of various concentrations were prepared by dissolving the cinnamaldehyde derivatives of the present invention in DMSO. 7.5 μl of the prepared samples was added to a culture used as experimental group. Cell of control or experimental group was incubated for 48 hours.
(§2) HCT116 GI50 (μM) and SW620 GI50 (μM) mean to be the concentrations at which growth of HCT116 and SW620 colon cancer cell was inhibited to the 50%, respectively.

SW620 colon cancer cell [2] = experiment: Growth inhibition of SW620 colon cancer cell (GI50); format: cell-based, human; settings: concentration at which growth of SW620 colon cancer cell was inhibited to the 50%
Method: as §1, §2

SW620 colon cancer cell [3] = experiment: Cell cycle analysis (Experimental Example 1), SW620; format: cell-based, human; settings: SW620, 1 μM, 48 hours, percentage of cells in G2/M
Method: as §1
(§3) For cell cycle analysis, incubated cell was removed from medium. Thereafter the incubated cell was separated from the flask by trypsin. Thus the cell was centrifuged at 300 g for 5 min. The cell was washed with phosphate buffer solution (PBS) to remove the residue medium from the cell. 3 ml of ethanol (70%) was added to the cell. The cell was fixed by being positioned at −20° C. for 12 hours. The fixed cell was centrifuged at 300 g for 3 min and washed with the cold PBS for two times to remove residual ethanol. The cell solution prepared by adding 500 μl of PBS to the cell was well mixed to produce the homogeneous state. 100 μg/ml RNase A 50 μl was added to the cell solution, thereafter the resulting cell solution was positioned at 37° C. for 30 min. The chromosomal DNA was stained by further adding 1 mg/ml propidium iodide (soluble in PBS) thereto.
(§4) Distribution of cell cycle of 20,000 stained cells were measured by using Becton-Dickinson FACS caliber (San Jose, Calif., USA).

HCT116 colon cancer cell [4] = experiment: Cell cycle analysis (Experimental Example 1), HCT116; format: cell-based, human; settings: HCT116, 1 μM, 48 hours, percentage of cells in G2/M
Method: as §1, §3, §4

Row | SMILES | GI50 (HCT116 colon cancer cell [1]; Homo sapiens, HCT-116) [µM] | GI50 (SW620 colon cancer cell [2]; Homo sapiens, SW-620) [µM] | G2/M at 1 μM(%) SW620 (SW620 colon cancer cell [3]) [%] | G2/M at 1 μM(%) HCT116 (HCT116 colon cancer cell [4]) [%] | melting point [°C] | GI50 (HCT116 colon cancer cell [1]) [µM] | GI50 (SW620 colon cancer cell [2]) [µM]
1 | COc1cc(C=C(C=O)C(C=O)=Cc2ccc(O)c(OC)c2)ccc1O [Compound 7, 2,3-bis-(4-hydroxy-3-methoxy-benzylidene)succinaldehyde] | 7.87 | 3.53 | 38 | 30 | 177 to 178 | – | –
2 | COc1cc(C=C(C=O)C(C=O)=Cc2ccc(OC(C)=O)c(OC)c2)ccc1OC(C)=O [Compound 25, 2,3-bis-(4-acetyloxy-3-methoxy-benzylidene)succinaldehyde] | 17.7 | 66.3 | 48 | 43 | 149 to 151 | – | –
3 | O=CC(=Cc1ccc(OCc2ccccc2)cc1)C(C=O)=Cc1ccc(OCc2ccccc2)cc1 [Compound 31, 2,3-bis-(4-benzyloxy-benzylidene)succinaldehyde] | 3.58 | 7.38 | 62 | 64 | 119 to 120 | – | –
4 | CCCOc1ccc(/C=C(C=O)/C(C=O)=C/c2ccc(OCCC)cc2)cc1 [Compound 28, 2,3-bis-(4-propyloxybenzylidene)succinaldehyde] | 0.82 | 0.55 | 70 | 72 | – | – | –
5 | COc1ccc(COc2ccc(C=C(C=O)C(C=O)=Cc3ccc(OCc4ccc(OC)cc4)cc3)cc2)cc1 [Compound 39, 2,3-bis-(4-(4-methoxybenzyloxy)-benzylidene)succinaldehyde] | 3.7 | 6.8 | 48 | 38 | 218 to 220 | – | –
6 | CCCCC(=O)Oc1ccc(C=C(C=O)C(C=O)=Cc2ccc(OC(=O)CCCC)c(OC)c2)cc1OC [Compound 26, 2,3-bis-(4-valeryloxy-3-methoxy-benzylidene)succinaldehyde] | 11.2 | 54 | 47 | 46 | – | – | –
7 | O=CC(=Cc1ccccc1OCc1ccc(Br)cc1)C(C=O)=Cc1ccccc1OCc1ccc(Br)cc1 [Compound 18, 2,3-bis-(2-(4-bromobenzyloxy)-benzylidene)succinaldehyde] | 2.63 | 4.64 | 70 | 75 | 210 to 211 | – | –
8 | COc1ccc(C=C(C=O)C(C=O)=Cc2ccc(OC)cc2)cc1 [Compound 12, 2,3-bis-(4-methoxy-benzylidene)succinaldehyde] | 9.62 | 10.2 | 57 | 59 | 204 to 207 | – | –
9 | O=CC(=Cc1ccc(OC(=O)c2ccccc2)cc1)C(C=O)=Cc1ccc(OC(=O)c2ccccc2)cc1 [Compound 32, 2,3-bis-(4-benzoyloxy-benzylidene)succinaldehyde] | 11.9 | 5.97 | 52 | 56 | 207 to 208 | – | –
10 | CCCOc1ccccc1/C=C(C=O)/C(C=O)=C/c1ccccc1OCCC [Compound 13, 2,3-bis(2-propyloxy-benzylidene)succinaldehyde] | 5.28 | 2.11 | 62 | 65 | 109 to 110 | – | –
11 | O=CC(=Cc1ccc(Cl)cc1)C(C=O)=Cc1ccc(Cl)cc1 [Compound 9, 2,3-bis-(4-chlorobenzylidene)succinaldehyde] | 3.62 | 24.2 | 67 | 63 | 172 to 173 | – | –
12 | O=CC(=Cc1ccccc1Cl)C(C=O)=Cc1ccccc1Cl [Compound 3, 2,3-bis-(2-chlorobenzylidene)succinaldehyde] | 0.91 | 0.91 | 47 | 40 | 177 to 178 | – | –
13 | CCCOc1cccc(/C=C(C=O)/C(C=O)=C/c2cccc(OCCC)c2)c1 [Compound 20, 2,3-bis-(3-propyloxy-benzylidene)succinaldehyde] | 2.74 | 6.74 | 76 | 72 | 93 to 94 | – | –
14 | O=CC(=Cc1ccccc1F)C(C=O)=Cc1ccccc1F [Compound 2, 2,3-bis-(2-fluorobenzylidene)succinaldehyde] | 4.02 | 10.7 | 58 | 48 | 141 to 142 | – | –
15 | COc1cc(C=C(C=O)C(C=O)=Cc2ccc(OC(=O)c3ccccc3)c(OC)c2)ccc1OC(=O)c1ccccc1 [Compound 27, 2,3-bis-(4-benzoyloxy-3-methoxy-benzylidene)succinaldehyde] | 2.95 | 13.9 | 77 | 79 | 107 to 110 | – | –
16 | O=CC(=Cc1ccc(O)cc1)C(C=O)=Cc1ccc(O)cc1 [Compound 10, 2,3-bis-(4-hydroxy-benzylidene)succinaldehyde] | 1.36 | 1.02 | 65 | 61 | 244 to 246 | – | –
17 | COc1ccccc1C=C(C=O)C(C=O)=Cc1ccccc1OC [Compound 5, 2,3-bis-(2-methoxybenzylidene)succinaldehyde] | 3.72 | 1.55 | 50 | 55 | 163 to 164 | – | –
18 | Cc1ccc(C=C(C=O)C(C=O)=Cc2ccc(C)cc2)cc1 [Compound 11, 2,3-bis-(4-methyl-benzylidene)succinaldehyde] | 1.03 | 5.17 | 44 | 40 | 177 to 178 | – | –
19 | COc1cc(C=C(C=O)C(C=O)=Cc2ccc(OC(C)C)c(OC)c2)ccc1OC(C)C [Compound 24, 2,3-bis-(4-isopropyloxy-3-methoxy-benzylidene)succinaldehyde] | 0.71 | 0.91 | 55 | 48 | 119 to 120 | – | –
20 | COc1ccc(C=C(C=O)C(C=O)=Cc2ccc(OC)c(OC)c2)cc1OC [Compound 8, 2,3-bis-(3,4-dimethoxybenzylidene)succinaldehyde] | 5.49 | 10.5 | 75 | 71 | 149 to 150 | – | –
21 | O=CC(=Cc1ccccc1Br)C(C=O)=Cc1ccccc1Br [Compound 4, 2,3-bis-(2-bromobenzylidene)succinaldehyde] | 1.05 | 2.14 | 36 | 38 | 194 to 195 | – | –
22 | O=CC(=Cc1ccc(OCc2ccc(Cl)cc2)cc1)C(C=O)=Cc1ccc(OCc2ccc(Cl)cc2)cc1 [Compound 38, 2,3-bis-(4-(4-chlorobenzyloxy)-benzylidene)succinaldehyde] | 3.8 | 2.2 | 53 | 44 | 208 to 209 | – | –
23 | CC(C)Oc1ccc(C=C(C=O)C(C=O)=Cc2ccc(OC(C)C)cc2)cc1 [Compound 29, 2,3-bis-(4-isopropyloxy-benzylidene)succinaldehyde] | 0.82 | 1.06 | 47 | 49 | 200 to 202 | – | –
24 | COc1ccc(COc2cccc(C=C(C=O)C(C=O)=Cc3cccc(OCc4ccc(OC)cc4)c3)c2)cc1 [Compound 37, 2,3-bis-(3-(4-methoxybenzyloxy)-benzylidene)succinaldehyde] | 3.4 | 5.1 | 46 | 35 | 117 to 119 | – | –
25 | CCCCC(=O)Oc1ccc(C=C(C=O)C(C=O)=Cc2ccc(OC(=O)CCCC)cc2)cc1 [Compound 30, 2,3-bis-(4-valeryoxy-benzylidene)succinaldehyde] | – | – | 65 | 63 | – | 21 | 65
